What was measured:
[1] = Total doxorubicin content, recovery and encapsulation efficiency of liposomal suspension (HPLC); type: physicochemical; settings: 50:1 lipid/drug
Description: All HPLC was performed using an Agilent 1260 Infinity system, equipped with a G13110B pump, 01329B autosampler, G1316A column compartment, and a G1315D diode-array detector. OpenLab CDS (EZChrom edition) software controlled all modules and was used for analysis and reporting of chromatography. A Phenomenex Luna C18 column (5μ, 150×4.6 mm; part #00G-4252-E0) was used for all analyses.
Chromatographic analysis of doxorubicin (DOX) was performed on the Agilent 1260 Infinity system using a C18 column (see above) with a column temperature of 40° C. and sample temperature at ambient conditions (˜25° C.). All mobile phase reagents were filtered with a 0.45 μm filter membrane prior to use. HPLC grade acetonitrile was from EMD Millipore. […] Mobile phase flow rate was set to 1.0 mL/min with a run time of 15 minutes. The diode array detector was operated at 487 nm with a bandwidth of 4 nm. Injection volume was set to 10 μL.
Standard stock solution of doxorubicin was prepared in a 0.9% saline, or methanol, or water solution (1 mg/mL). Calibration standards were prepared by diluting the stock solution in anhydrous methanol to bracket the target concentration for analysis. For this study, the doxorubicin solution was diluted with anhydrous methanol or IPA to the final concentration 50 μg/mL, 100 μg/mL and 200 μg/mL; respectively. Samples of liposomal suspension were also diluted with anhydrous methanol or IPA by a factor of 8 or 10 times prior to analysis.
Determination of doxorubicin in liposomal suspension. Followed doxorubicin loading liposomal suspension was subjected to 5× TFF to majorly remove free (not encapsulated) doxorubicin. To determine total doxorubicin concentration at TO (within one week of MFD) TFF washed liposomes were diluted with methanol or IPA and subjected to HPLC analysis. Doxorubicin content, percent of recovery (doxorubicin content in liposomal suspension relative to doxorubicin free base concentration used for remote loading), and encapsulation efficiency (%) are presented in the Table 9. Encapsulation efficiency (%) represents the difference between doxorubicin recovery (%) and free doxorubicin (%).

[2] = counter ion; cited from earlier work
[3] = test system: Daudi cells; assay: In vitro cell-based cytotoxicity assay (Alamar Blue), Daudi cells; settings: Homo sapiens, 1 hr exposure, 48 hrs culture
Description: (§1) Daudi cells (ATCC, CCL-213). Cells were plated in 96 well plates at the density 100K cells per well. Doxorubicin hydrochloride, Doxil®, or doxorubicin oxalate liposomes were appropriately diluted in Growth medium (RPMI-1640, 10% FBS) and added to the cells. After 1 hr of incubation at 37° C. plates were centrifuged, supernatant was removed via aspiration, 100 μL of fresh media were added into each well, and cells were cultured for 48 hrs.
(§2) On the day, 3 to assess cell viability, Alamar Blue solution was prepared in Growth medium (RPMI-1640, 10% FBS) at 1:250 dilution and added directly into cell media. After 6 hrs of incubation at 37° C. the resulting fluorescence was read on a plate reader. The fluorescence of cells that have not received any drug treatment was defined as maximum viability. The fluorescence of cell free media was defined as complete cell death. Data analysis was performed by using Prism nonlinear regression software (GraphPad Software) for the curve-fitting and determination of IC50 values.

[4] = test system: Human B lymphoma cell line Ramos (RA 1); assay: In vivo study: B lymphoma model in SCID Beige mice; settings: 3 mg doxorubicin/kg iv x3
Description: On the same day prior to administration into animals cell were counted, centrifuged at 12000 rpm, washed with sterile PBS, centrifuged again at 1200 rpm, resuspended in sterile PBS to the final cell count 35×10-per mL. Suspension of cells was administered into animals intravenously via single bolus injection to deliver 5×10^6 cells per mouse.
Four weeks old immune deficient SCID Beige, (Line—CB17.Cg-Prkdc^scidLyst^bg-J/Crl) mice were maintained on Chow diet. At the age of 8 weeks mice were subdivided in 3 groups. On the day 1, 5×10^6 B lymphoma cells were intravenously injected into each mouse (FIG. 2). […] On the day 2 and 3 all treatments were repeated (FIG. 2). Animals were monitored daily and weighed twice a week.
Treatment articles were administered intravenously in 120 μL via single bolus injection to deliver 60 μg of doxorubicin per mouse or ˜3 mg/kg dose.

[5] = test system: nucleus; settings: within 8 h after administration; cited from earlier work
[6] = test system: Hela cells; assay: cells; type: cell-based; settings: Homo sapiens, read-out: Hela, CC50, μM
Description: as §1, with “Hela” for “Daudi”, “(HeLa (ATCC CCL-2).” for “(ATCC, CCL-213).”, “25K” for “100K”, “(DMEM, 5% FBS, 1% antibiotic, 1% HEPES)” for “(RPMI-1640, 10% FBS)”
as §2

Structure (SMILES)	doxorubicin loading into liposomes with this counter ion (in words) ([1]; remote loading at 70° C.)	other results
CC(=O)O [Acetate]	no doxorubicin loading was observed	–
O=C1O[C@H]([C@@H](O)CO)C(O)=C1O [Ascorbate]	no doxorubicin loading was observed	–
N[C@@H](CS)C(=O)O [Cysteinate]	no doxorubicin loading was observed	pKa 1 [2]: 1.96; pKa 2 [2]: 8.18
COc1cccc2c1C(=O)c1c(O)c3c(c(O)c1C2=O)C[C@@](O)(C(=O)CO)C[C@@H]3O[C@H]1C[C@H](N)[C@H](O)[C@H](C)O1.Cl [Doxorubicin Hydrochloride, Doxorubicin hydrochloride]	–	CC50 [3]: 0.4 µM; survival compared to Placebo (in words) [4]: survivors demonstrated longest MST; death rate ([4]; day 13): 50%; drug translocated to / entered the nucleus [5]: 26%; CC50 [6]: 7 µM
O=CO [Formate]	no doxorubicin loading was observed	–
O=C(O)/C=C/C(=O)O [Fumarate]	no doxorubicin loading was observed	–
O=C(O)/C=C\C(=O)O [Maleate]	no doxorubicin loading was observed	–
O=C(O)CC(=O)O [Malonate]	no doxorubicin loading was observed	–
CC(=O)N[C@@H](CS)C(=O)O [N-Acetyl- L-cysteine]	no doxorubicin loading was observed	pKa 1 [2]: 3.82; doxorubicin loading into liposomes with this counter ion (in words) ([1]; cold loading at room temperature): no doxorubicin loading was observed
O=C(O)c1ccccn1 [Picolinate]	no doxorubicin loading was observed	–
O=C(O)CCC(=O)O [Succinate]	no doxorubicin loading was observed	–

Source: patent US11033520B2, “Liposomal anticancer compositions” (IriSys, LLC, priority 2016, dated 2021)
